Source: ChEMBL document CHEMBL1201862, “PubChem BioAssay data set” (2004)
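Interpolation was linear, between the two tested concentrations surrounding the appropriate level; five concentrations were tested over 48 hours in 96-well plates. At the GI50, growth is halved.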 The source made the active and inactive calls. Rule as the data show it: active = GI50 up to about 1.1 µM and inactive = higher.

Tests used:
Experiment in all cases: NCI-60 cell line screen, 48 h
TK-10 = system: TK-10
U-251 = system: U-251
HT-29 = system: HT-29
HCT-15 = system: HCT-15
CCRF-CEM = system: CCRF-CEM
HCT-116 = system: HCT-116
A549 = system: A549
SK-OV-3 = system: SK-OV-3
CAKI-1 = system: CAKI-1
UACC-62 = system: UACC-62
HCC 2998 = system: HCC 2998
786-0 = system: 786-0
SF-295 = system: SF-295
OVCAR-8 = system: OVCAR-8
HOP-62 = system: HOP-62
RPMI-8226 = system: RPMI-8226
A498 = system: A498
SK-MEL-5 = system: SK-MEL-5
SN12C = system: SN12C
MOLT-4 = system: MOLT-4
Malme-3M = system: Malme-3M
SF-539 = system: SF-539
SR = system: SR
HL-60 = system: HL-60
OVCAR-5 = system: OVCAR-5
KM12 = system: KM12
LOX IMVI = system: LOX IMVI
OVCAR-4 = system: OVCAR-4
NCI-H23 = system: NCI-H23
IGROV-1 = system: IGROV-1
EKVX = system: EKVX
K562 = system: K562
KM-20L2 = system: KM-20L2
M19-MEL = system: M19-MEL
SW-620 = system: SW-620
DLD-1 = system: DLD-1
OVCAR-3 = system: OVCAR-3
NCI-H226 = system: NCI-H226
COLO 205 = system: COLO 205
NCI-H522 = system: NCI-H522
DMS-273 = system: DMS-273
NCI-H460 = system: NCI-H460
HOP-18 = system: HOP-18
UO-31 = system: UO-31
SF-268 = system: SF-268
SNB-78 = system: SNB-78
RXF 393 = system: RXF 393
DMS-114 = system: DMS-114
ACHN = system: ACHN
SNB-75 = system: SNB-75
SNB-19 = system: SNB-19
M14 = system: M14
SK-MEL-2 = system: SK-MEL-2
SK-MEL-28 = system: SK-MEL-28
UACC-257 = system: UACC-257
HOP-92 = system: HOP-92
XF498 = system: XF498
LXFL 529 = system: LXFL 529

`CCOC(=O)C1=C(O)C(=O)c2cc(OC)ccc2C1=O` was tested, and the GI50 (TK-10) was > 100 µM (inactive), the GI50 (U-251) was > 100 µM (inactive) and the GI50 (HT-29) was > 100 µM (inactive). The GI50 (HCT-15) was greater than 100 µM, the GI50 (CCRF-CEM) was > 100 µM (inactive) and the GI50 (HCT-116) was 95.5 µM (inactive). The GI50 (A549) was 96.2 µM (inactive), the GI50 (SK-OV-3) was > 100 µM (inactive) and the GI50 (CAKI-1) was > 100 µM (inactive). The GI50 (UACC-62) was > 100 µM (inactive), the GI50 (HCC 2998) was > 100 µM (inactive) and the GI50 (786-0) was > 100 µM (inactive). For the same compound, the GI50 (SF-295) was 84.9 µM (inactive), the GI50 (OVCAR-8) was > 100 µM (inactive) and the GI50 (HOP-62) was > 100 µM (inactive). The GI50 (RPMI-8226) was > 100 µM (inactive), the GI50 (A498) was > 100 µM (inactive) and the GI50 (SK-MEL-5) was 49.1 µM (inactive). The GI50 (SN12C) was > 100 µM (inactive), the GI50 (MOLT-4) was > 100 µM (inactive) and the GI50 (Malme-3M) was > 100 µM (inactive). The GI50 (SF-539) was 65.9 µM (inactive), the GI50 (SR) was > 100 µM (inactive) and the GI50 (HL-60) was > 100 µM (inactive). The GI50 (OVCAR-5) was > 100 µM (inactive), the GI50 (KM12) was > 100 µM (inactive) and the GI50 (LOX IMVI) was 55.2 µM (inactive). For the same compound, the GI50 (OVCAR-4) was > 100 µM (inactive), the GI50 (NCI-H23) was 31.8 µM (inactive) and the GI50 (IGROV-1) was > 100 µM (inactive). For the same compound, the GI50 (EKVX) was > 100 µM (inactive), the GI50 (K562) was > 100 µM (inactive) and the GI50 (KM-20L2) was > 100 µM (inactive). The GI50 (M19-MEL) was 20.7 µM (inactive), the GI50 (SW-620) was > 100 µM (inactive) and the GI50 (DLD-1) was > 100 µM (inactive). For the same compound, the GI50 (OVCAR-3) was > 100 µM (inactive), the GI50 (NCI-H226) was 38.5 µM (inactive) and the GI50 (COLO 205) was > 100 µM (inactive). For the same compound, the GI50 (NCI-H522) was 55.7 µM (inactive), the GI50 (DMS-273) was > 100 µM (inactive) and the GI50 (NCI-H460) was > 100 µM (inactive). The GI50 (HOP-18) was 4.51 µM (inactive), the GI50 (UO-31) was 63 µM (inactive) and the GI50 (SF-268) was > 100 µM (inactive). The GI50 (SNB-78) was > 100 µM (inactive), the GI50 (RXF 393) was > 100 µM (inactive) and the GI50 (DMS-114) was > 100 µM (inactive). For the same compound, the GI50 (ACHN) was > 100 µM (inactive), the GI50 (SNB-75) was 20.9 µM (inactive) and the GI50 (SNB-19) was 38.9 µM (inactive). The GI50 (M14) was > 100 µM (inactive), the GI50 (SK-MEL-2) was > 100 µM (inactive) and the GI50 (SK-MEL-28) was > 100 µM (inactive). The GI50 (UACC-257) was 35.1 µM (inactive) and the GI50 (HOP-92) was > 100 µM (inactive).

`Cc1c(/C=N/NC(=O)c2cc(Br)cc(Br)c2O)c(=O)n(-c2ccccc2)n1C` was tested, and the GI50 (TK-10) was 69.8 µM (inactive), the GI50 (U-251) was 69 µM (inactive) and the GI50 (HT-29) was 64.7 µM (inactive). The GI50 (HCT-15) was 39.1 µM, the GI50 (CCRF-CEM) was 23.3 µM (inactive) and the GI50 (HCT-116) was 56.4 µM (inactive). For the same compound, the GI50 (A549) was > 100 µM (inactive), the GI50 (SK-OV-3) was > 100 µM (inactive) and the GI50 (CAKI-1) was 25.2 µM (inactive). The GI50 (UACC-62) was 19.6 µM (inactive), the GI50 (HCC 2998) was > 100 µM (inactive) and the GI50 (786-0) was 92 µM (inactive). The GI50 (SF-295) was > 100 µM (inactive), the GI50 (OVCAR-8) was 27.5 µM (inactive) and the GI50 (HOP-62) was 52.7 µM (inactive). For the same compound, the GI50 (RPMI-8226) was 85.7 µM (inactive), the GI50 (A498) was > 100 µM (inactive) and the GI50 (SK-MEL-5) was 51.6 µM (inactive). For the same compound, the GI50 (SN12C) was 69.7 µM (inactive), the GI50 (MOLT-4) was 56.1 µM (inactive) and the GI50 (Malme-3M) was 67.3 µM (inactive). For the same compound, the GI50 (SF-539) was 47 µM (inactive), the GI50 (HL-60) was 2.49 µM (inactive) and the GI50 (OVCAR-5) was > 100 µM (inactive). The GI50 (KM12) was 33.8 µM (inactive), the GI50 (XF498) was 17.6 µM (inactive) and the GI50 (LOX IMVI) was 6.53 µM (inactive). The GI50 (OVCAR-4) was > 100 µM (inactive), the GI50 (NCI-H23) was 77.3 µM (inactive) and the GI50 (IGROV-1) was 1.22 µM (inactive). The GI50 (EKVX) was > 100 µM (inactive), the GI50 (K562) was 51.4 µM (inactive) and the GI50 (KM-20L2) was 58.3 µM (inactive). The GI50 (M19-MEL) was > 100 µM (inactive), the GI50 (SW-620) was 53.7 µM (inactive) and the GI50 (DLD-1) was 67.1 µM (inactive). The GI50 (OVCAR-3) was 29.9 µM (inactive), the GI50 (NCI-H226) was 90.6 µM (inactive) and the GI50 (COLO 205) was 61.2 µM (inactive). For the same compound, the GI50 (LXFL 529) was 75.9 µM (inactive), the GI50 (NCI-H522) was 33 µM (inactive) and the GI50 (DMS-273) was 5.25 µM (inactive). The GI50 (NCI-H460) was 39.2 µM (inactive), the GI50 (UO-31) was 70.5 µM (inactive) and the GI50 (SF-268) was 83.8 µM (inactive). For the same compound, the GI50 (SNB-78) was > 100 µM (inactive), the GI50 (DMS-114) was 38.5 µM (inactive) and the GI50 (ACHN) was 51.1 µM (inactive). The GI50 (SNB-75) was > 100 µM (inactive), the GI50 (SNB-19) was > 100 µM (inactive) and the GI50 (M14) was 36.9 µM (inactive). The GI50 (SK-MEL-2) was > 100 µM (inactive), the GI50 (SK-MEL-28) was 20.8 µM (inactive) and the GI50 (UACC-257) was 35.3 µM (inactive). The GI50 (HOP-92) was 30.1 µM (inactive).

With `COC(=O)CC(C(C(=O)OC)C(=O)OC)N1C(=O)OC(c2ccccc2)C1c1ccccc1` (stereo unspecified) the GI50 (TK-10) was > 100 µM (inactive), the GI50 (U-251) was 89.5 µM (inactive) and the GI50 (HT-29) was > 100 µM (inactive). The GI50 (HCT-15) was 53.6 µM, the GI50 (CCRF-CEM) was 63.1 µM (inactive) and the GI50 (HCT-116) was 95.9 µM (inactive). For the same compound, the GI50 (A549) was > 100 µM (inactive), the GI50 (SK-OV-3) was > 100 µM (inactive) and the GI50 (CAKI-1) was 19.3 µM (inactive). For the same compound, the GI50 (UACC-62) was > 100 µM (inactive), the GI50 (HCC 2998) was 34 µM (inactive) and the GI50 (786-0) was > 100 µM (inactive). The GI50 (SF-295) was > 100 µM (inactive), the GI50 (OVCAR-8) was > 100 µM (inactive) and the GI50 (HOP-62) was > 100 µM (inactive). For the same compound, the GI50 (RPMI-8226) was 45.6 µM (inactive), the GI50 (A498) was > 100 µM (inactive) and the GI50 (SK-MEL-5) was > 100 µM (inactive). The GI50 (SN12C) was > 100 µM (inactive), the GI50 (MOLT-4) was > 100 µM (inactive) and the GI50 (Malme-3M) was > 100 µM (inactive). For the same compound, the GI50 (SF-539) was > 100 µM (inactive), the GI50 (HL-60) was 37 µM (inactive) and the GI50 (OVCAR-5) was > 100 µM (inactive). The GI50 (KM12) was > 100 µM (inactive), the GI50 (LOX IMVI) was 38.9 µM (inactive) and the GI50 (OVCAR-4) was > 100 µM (inactive). The GI50 (NCI-H23) was > 100 µM (inactive), the GI50 (IGROV-1) was > 100 µM (inactive) and the GI50 (EKVX) was > 100 µM (inactive). The GI50 (K562) was > 100 µM (inactive), the GI50 (KM-20L2) was > 100 µM (inactive) and the GI50 (M19-MEL) was > 100 µM (inactive). The GI50 (SW-620) was 26.1 µM (inactive), the GI50 (DLD-1) was 68.5 µM (inactive) and the GI50 (OVCAR-3) was > 100 µM (inactive). The GI50 (NCI-H226) was > 100 µM (inactive), the GI50 (COLO 205) was 86.9 µM (inactive) and the GI50 (LXFL 529) was > 100 µM (inactive). For the same compound, the GI50 (NCI-H522) was 69.5 µM (inactive), the GI50 (DMS-273) was > 100 µM (inactive) and the GI50 (NCI-H460) was 94.2 µM (inactive). The GI50 (HOP-18) was > 100 µM (inactive), the GI50 (UO-31) was > 100 µM (inactive) and the GI50 (SF-268) was > 100 µM (inactive). For the same compound, the GI50 (RXF 393) was 74.5 µM (inactive), the GI50 (DMS-114) was 45.6 µM (inactive) and the GI50 (ACHN) was > 100 µM (inactive). For the same compound, the GI50 (SNB-75) was > 100 µM (inactive), the GI50 (SNB-19) was > 100 µM (inactive) and the GI50 (M14) was > 100 µM (inactive). For the same compound, the GI50 (SK-MEL-2) was > 100 µM (inactive), the GI50 (SK-MEL-28) was > 100 µM (inactive) and the GI50 (UACC-257) was > 100 µM (inactive). The GI50 (HOP-92) was > 100 µM (inactive).
